The text below walks through data of BindingDB's records for doi:10.1021/jm00095a003 (C.N.R.-Centro Studio Sostanze Organiche Naturali, 1992).

As usually defined, the Kd is the concentration at which binding is half-saturated.

Experiment [1] concerns the target T1, Muscarinic acetylcholine receptor (Cavia porcellus, UniProt Q8VH26). Briefly: Dissociation constant at muscarinic acetylcholine receptor M3 of guinea pig ileum.
The target in experiment [2] is T1, Muscarinic acetylcholine receptor. Briefly: Dissociation constant at muscarinic acetylcholine receptor M3 guinea pig bladder.
Experiment [3] has the same target. Briefly: Dissociation constant at muscarinic M3 receptors of guinea pig ileum.
Experiment [4] has the same target. Kind of experiment: Dissociation constant at muscarinic M3 receptors of guinea pig bladder.

T1 sequence (Q8VH26 whole entry): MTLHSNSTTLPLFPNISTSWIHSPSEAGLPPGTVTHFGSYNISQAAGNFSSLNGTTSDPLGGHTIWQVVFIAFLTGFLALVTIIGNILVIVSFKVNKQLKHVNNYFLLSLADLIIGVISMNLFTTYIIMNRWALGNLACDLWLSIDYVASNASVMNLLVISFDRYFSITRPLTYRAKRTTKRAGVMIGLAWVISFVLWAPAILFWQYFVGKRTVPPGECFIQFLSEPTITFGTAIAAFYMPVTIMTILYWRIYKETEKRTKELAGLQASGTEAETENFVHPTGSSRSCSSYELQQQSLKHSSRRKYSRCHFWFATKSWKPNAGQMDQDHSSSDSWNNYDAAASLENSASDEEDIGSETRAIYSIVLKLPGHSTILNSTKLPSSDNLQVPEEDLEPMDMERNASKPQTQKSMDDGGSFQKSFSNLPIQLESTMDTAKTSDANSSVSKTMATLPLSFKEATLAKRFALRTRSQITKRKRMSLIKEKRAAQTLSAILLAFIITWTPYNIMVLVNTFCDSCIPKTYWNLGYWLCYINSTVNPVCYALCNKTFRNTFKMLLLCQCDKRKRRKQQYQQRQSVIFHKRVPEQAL

`C[C@@H]1O[C@H](C[N+](C)(C)C)C[C@H]1O`: the Kd amounted to 1.12 µM in experiment [1] and 24 µM in experiment [2].
Turning to `C[C@@H]1O[C@H](C[N+](C)(C)C)C[C@H]1F`, the Kd is 1.91 µM in experiment [3] and 40.7 µM in experiment [4].
